{"source": "ChEMBL document CHEMBL1151546", "about": "“A new structural analogue antagonist of peptido-leukotrienes. The discovery of bay x7195” (Bioorg Med Chem Lett, 1993)", "key": {"[1]": {"target": "T1, Cysteinyl leukotriene receptor 1 (Cavia porcellus, UniProt Q2NNR5)", "T1 sequence (Q2NNR5 whole entry)": "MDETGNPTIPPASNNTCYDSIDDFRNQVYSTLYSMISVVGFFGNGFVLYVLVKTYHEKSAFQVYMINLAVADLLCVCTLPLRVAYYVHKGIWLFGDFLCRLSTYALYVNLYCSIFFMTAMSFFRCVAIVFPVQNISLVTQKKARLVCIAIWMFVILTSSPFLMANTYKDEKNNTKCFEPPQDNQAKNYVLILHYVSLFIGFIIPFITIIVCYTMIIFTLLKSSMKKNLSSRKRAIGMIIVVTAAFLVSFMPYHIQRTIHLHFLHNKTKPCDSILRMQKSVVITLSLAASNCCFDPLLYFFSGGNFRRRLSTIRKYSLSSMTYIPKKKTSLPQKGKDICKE", "test": "Inhibition of [3H]LTD4 binding to guinea-pig lung membranes", "assay_type": "tissue-based, Membrane"}, "[2]": {"target": "T2, Cysteinyl leukotriene receptor 1 (Cavia porcellus) (UniProt Q2NNR5)", "T2 sequence (whole entry)": "T1 sequence (Q2NNR5 whole entry)", "test": "Compound was evaluated for its antagonist affinity at 10 (uM) on guinea-pig trachea rings against LTD4 receptor", "assay_type": "functional, tissue-based"}, "[3]": {"system": "Cavia porcellus", "test": "Compound was tested in vivo for antagonistic potency of LTD4 induced contractions of guinea-pig trachea after oral administration", "assay_type": "functional", "settings": "read-out: ID50 (the source's name)"}, "[4]": {"species_on_record": "Cavia porcellus", "test": "Compound was evaluated for its agonist activity on guinea-pig ileum, value expressed as the negative logarithm of the ED50 value", "assay_type": "functional"}, "[5]": {"target": "T1, Cysteinyl leukotriene receptor 1", "test": "(§1) Compound was evaluated for its antagonist affinity at 0.1 uM on guinea-pig trachea rings against LTD4 receptor", "assay_type": "functional, tissue-based", "settings": "read-out: pA2 (converted)"}, "[6]": {"target": "T2, Cysteinyl leukotriene receptor 1 (Cavia porcellus)", "test": "as §1", "assay_type": "functional, tissue-based"}, "[7]": {"target": "T3, Cysteinyl leukotriene receptor 1 (Homo sapiens) (UniProt Q9Y271)", "T3 sequence (whole entry)": "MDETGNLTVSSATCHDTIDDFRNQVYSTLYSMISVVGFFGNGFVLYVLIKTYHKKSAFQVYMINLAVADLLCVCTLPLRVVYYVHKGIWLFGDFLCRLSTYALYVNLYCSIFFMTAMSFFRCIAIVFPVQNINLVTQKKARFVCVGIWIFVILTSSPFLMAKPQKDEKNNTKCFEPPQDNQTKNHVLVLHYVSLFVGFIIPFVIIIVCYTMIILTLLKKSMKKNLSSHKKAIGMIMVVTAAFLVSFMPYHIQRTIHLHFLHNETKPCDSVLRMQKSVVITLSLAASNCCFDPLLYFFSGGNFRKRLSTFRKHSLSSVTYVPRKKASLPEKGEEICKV", "test": "Compound was evaluated for its antagonist affinity against LTD4 on human bronchial muscle", "assay_type": "functional, tissue-based", "settings": "Muscle tissue"}, "[8]": {"target": "T1, Cysteinyl leukotriene receptor 1", "test": "Compound was evaluated for its binding affinity on guinea-pig ileum", "assay_type": "tissue-based"}, "[9]": {"species_on_record": "Cavia porcellus", "test": "spontaneously compound was tested for oral activity against LTD4 in spontaneously-breathing guinea pigs", "assay_type": "functional", "settings": "read-out: ID50 (the source's name)"}, "[10]": {"target": "T2, Cysteinyl leukotriene receptor 1 (Cavia porcellus)", "test": "Compound was evaluated for its antagonist affinity at 1 uM on guinea-pig trachea rings against LTD4 receptor", "assay_type": "functional, tissue-based"}}, "data": [{"smiles": "O=C(O)CCC[C@H](O)[C@@H](/C=C\\CCCCCCCCCCCCCc1ccccc1)Sc1ccc(C(=O)O)cc1", "values": [{"measurement": "Ki", "setting": "[1]", "result": 5010, "unit": "nM"}]}, {"smiles": "O=C(O)CCC[C@H](O)[C@@H](/C=C\\Cc1cccc(OCCCOc2ccccc2)c1)Sc1ccc(C(=O)O)cc1", "values": [{"measurement": "pKB", "setting": "[2]", "result": "< 5"}]}, {"smiles": "O=C(O)CCC[C@H](O)[C@@H](/C=C\\Cc1ccc(OCCCCOc2ccccc2)cc1)Sc1ccc(C(=O)O)cc1", "values": [{"measurement": "pKB", "setting": "[2]", "result": 8.3}, {"measurement": "ED50", "setting": "[3]", "result": "~3", "unit": "mg/kg"}]}, {"smiles": "CCCCC/C=C\\C\\C=C/C=C/C=C/[C@@H](SC[C@H](N)C(=O)NCC(=O)O)[C@@H](O)CCCC(=O)O", "note": "[LEUKOTRIENE D4]", "values": [{"measurement": "pD2", "setting": "[4]", "result": 8.4}]}, {"smiles": "O=C(O)CCC[C@H](O)[C@@H](/C=C\\CCCCCCCCc1ccccc1)Sc1ccc(C(=O)O)cc1", "values": [{"measurement": "Ki", "setting": "[1]", "result": 316, "unit": "nM"}]}, {"smiles": "O=C(O)CCC[C@H](O)[C@@H](/C=C\\CCCCCCCCOc1ccccc1)Sc1ccc(C(=O)O)cc1", "values": [{"measurement": "Ki", "setting": "[1]", "result": 631, "unit": "nM"}]}, {"smiles": "O=C(O)CCC(/C=C/Cc1ccc(OCCCCOc2ccccc2)cc1)Sc1ccc(C(=O)O)cc1", "note": "(single isomer, unassigned; (+))", "values": [{"measurement": "Kb", "setting": "[5]", "result": 3.98, "unit": "nM"}]}, {"smiles": "O=C(O)CCC[C@H](O)[C@@H](/C=C\\c1ccccc1OCCCCOc1ccccc1)Sc1ccc(C(=O)O)cc1", "values": [{"measurement": "pKB", "setting": "[2]", "result": "< 5"}]}, {"smiles": "O=C(O)CCCCC(/C=C\\Cc1ccc(OCCCCOc2ccccc2)cc1)Sc1ccc(C(=O)O)cc1", "note": "(stereo unspecified)", "values": [{"measurement": "pKB", "setting": "[6]", "result": 8.3}, {"measurement": "pKB", "setting": "[7]", "result": 6.8}]}, {"smiles": "O=C(O)CCC(/C=C/Cc1ccc(OCCCCOc2ccccc2)cc1)Sc1ccc(C(=O)O)cc1", "note": "(single isomer, unassigned; (-))", "values": [{"measurement": "Kb", "setting": "[5]", "result": 100, "unit": "nM"}]}, {"smiles": "O=C(O)CCC[C@H](O)[C@@H](/C=C\\CCc1ccccc1)Sc1ccc(C(=O)O)cc1", "values": [{"measurement": "Ki", "setting": "[1]", "result": "> 100000", "unit": "nM"}]}, {"smiles": "O=C(O)CCC[C@H](O)[C@@H](/C=C\\Cc1ccccc1OCCCOc1ccccc1)Sc1ccc(C(=O)O)cc1", "values": [{"measurement": "pKB", "setting": "[2]", "result": "< 5"}]}, {"smiles": "CCCCC/C=C\\C\\C=C/C=C/C=C/[C@@H](Sc1ccccc1C(=O)O)[C@@H](O)CCCC(=O)O", "values": [{"measurement": "pD2", "setting": "[4]", "result": 6.9}, {"measurement": "Ki", "setting": "[8]", "result": 25.1, "unit": "nM"}]}, {"smiles": "O=C(O)CCC(/C=C\\Cc1ccc(OCCCCOc2ccccc2)cc1)Sc1ccc(C(=O)O)cc1", "note": "(stereo unspecified)", "values": [{"measurement": "ED50", "setting": "[9]", "result": 2, "unit": "mg/kg"}, {"measurement": "pKB", "setting": "[6]", "result": 8.4}, {"measurement": "pKB", "setting": "[7]", "result": 8}]}, {"smiles": "O=C(O)CCC[C@H](O)[C@@H](/C=C/CCc1ccccc1)Sc1ccc(C(=O)O)cc1", "values": [{"measurement": "Ki", "setting": "[1]", "result": "> 100000", "unit": "nM"}]}, {"smiles": "O=C(O)c1ccc(SC(/C=C\\Cc2ccc(OCCCCOc3ccccc3)cc2)C(=O)O)cc1", "note": "(stereo unspecified)", "values": [{"measurement": "pKB", "setting": "[10]", "result": 6.4}]}, {"smiles": "O=C(O)CCCC(/C=C\\Cc1ccc(OCCCCOc2ccccc2)cc1)Sc1ccc(C(=O)O)cc1", "note": "(stereo unspecified)", "values": [{"measurement": "pKB", "setting": "[10]", "result": 7}]}, {"smiles": "O=C(O)CCC[C@H](O)[C@@H](/C=C\\CCCCCCCCCOc1ccccc1)Sc1ccc(C(=O)O)cc1", "values": [{"measurement": "Ki", "setting": "[1]", "result": 316, "unit": "nM"}]}, {"smiles": "O=C(O)CCC[C@H](O)[C@@H](/C=C\\c1ccc(OCCCCOc2ccccc2)cc1)Sc1ccc(C(=O)O)cc1", "values": [{"measurement": "pKB", "setting": "[2]", "result": 6.5}]}, {"smiles": "O=C(O)CCC[C@H](O)[C@@H](/C=C\\CCCCCCCCCc1ccccc1)Sc1ccc(C(=O)O)cc1", "values": [{"measurement": "Ki", "setting": "[1]", "result": 251, "unit": "nM"}]}, {"smiles": "CCCCC/C=C\\C\\C=C/C=C/C=C/[C@@H](Sc1ccc(C(=O)O)cc1)[C@@H](O)CCCC(=O)O", "values": [{"measurement": "Ki", "setting": "[8]", "result": 100, "unit": "nM"}]}, {"smiles": "CCCCC/C=C\\C\\C=C/C=C/C=C/[C@@H](Sc1cccc(C(=O)O)c1)[C@@H](O)CCCC(=O)O", "values": [{"measurement": "pD2", "setting": "[4]", "result": 8.2}, {"measurement": "Ki", "setting": "[8]", "result": 2, "unit": "nM"}]}, {"smiles": "CCCCC/C=C\\C\\C=C/C=C/C=C/[C@@H](SCC(=O)O)[C@@H](O)CCCC(=O)O", "values": [{"measurement": "pD2", "setting": "[4]", "result": 8.5}, {"measurement": "Ki", "setting": "[8]", "result": 2, "unit": "nM"}]}, {"smiles": "O=C(O)CCC[C@H](O)[C@@H](/C=C\\CCCCCc1ccccc1)Sc1ccc(C(=O)O)cc1", "values": [{"measurement": "Ki", "setting": "[1]", "result": 20000, "unit": "nM"}]}, {"smiles": "O=C(O)CCC[C@H](O)[C@@H](/C=C\\c1cccc(OCCCCOc2ccccc2)c1)Sc1ccc(C(=O)O)cc1", "values": [{"measurement": "pKB", "setting": "[2]", "result": "< 5"}]}, {"smiles": "O=C(O)CCC[C@H](O)[C@@H](/C=C\\CCCCCCCCCCCc1ccccc1)Sc1ccc(C(=O)O)cc1", "values": [{"measurement": "Ki", "setting": "[1]", "result": 1260, "unit": "nM"}]}, {"smiles": "O=C(O)CCC[C@H](O)[C@@H](/C=C/c1cccc(OCCCCOc2ccccc2)c1)Sc1ccc(C(=O)O)cc1", "values": [{"measurement": "pKB", "setting": "[2]", "result": 6.8}]}, {"smiles": "O=C(O)CCC[C@H](O)[C@@H](/C=C/CCCc1ccccc1)Sc1ccc(C(=O)O)cc1", "values": [{"measurement": "Ki", "setting": "[1]", "result": "> 100000", "unit": "nM"}]}, {"smiles": "O=C(O)CC(/C=C\\Cc1ccc(OCCCCOc2ccccc2)cc1)Sc1ccc(C(=O)O)cc1", "note": "(stereo unspecified)", "values": [{"measurement": "pKB", "setting": "[10]", "result": 6.9}]}]}
